# Results published in US20250152577A1, “Pharmaceutical Composition of Ethidium Bromide and Use in Treating Cancer” (RUIJIN HOSPITAL, SHANGHAI JIAOTONG UNIVERSITY SCHOOL OF …, priority 2022, published 2025).
# Assays:
# GES1 = experiment: Median lethal dosage (IC50) against normal cell lines; format: cell-based; details: Homo sapiens; GES1 normal cells
# [1] = tested on: pancreatic cancer cells Panel; experiment: Mitochondrial function by Seahorse; format: cell-based, human; details: Seahorse after 6 hours; concentration-dependent
# Procedure: (§1) To further verify the effect of ethidium bromide on mitochondrial function, various cell lines were treated with ethidium bromide and mitochondrial function was tested by using Seahorse after 6 hours.
# [2] = tested on: pancreatic tumor cells Panc1; experiment: Scratch assay of cultured cells (migration); format: cell-based, human
# Source text: (§2) Ectopic metastasis of tumors is the biggest challenge in tumor treatment.
# [3] = tested on: colorectal cancer cells RKO; experiment: Scratch assay of cultured cells (migration); format: cell-based, human
# Source text: as §2
# cancer cells = experiment: Cell death/apoptosis (PI Sub-G1 flow cytometry, MTT, Annexin V); format: cell-based; details: 48 h
# Procedure: (§3) Ethidium bromide was purchased from Sigma (E7637) and treated as follows. Cancer and normal cells of various tissue origins with approximately 40% growth abundance were treated with 0.1, 0.4, and 1 μg/ml for 48 h, followed by PI staining and cycle detection by flow cytometry, statistical analysis of genomic DNA break (Sub-G1) cells, or cell viability by MTT method.
# (§4) In support of this, cancer cells and normal cells from various tissues with growth abundance of about 40% were treated with 1, 2, and 5 μM for 48 h, respectively, and then observed the growth of the cells by light microscopy, followed by PI staining, detection and statistical analysis of genomic DNA break (Sub-G1) cells by flow cytometry (FIG. 3), or cell apoptosis detection by Annexin V staining method (FIG. 4).
# normal cells [4] = experiment: as above; format: cell-based; details: 48 h
# Procedure: as §3, §4
# [5] = tested on: mTOR, p-NFkB, p-Erk, cleaved Caspase3; experiment: Signaling molecules in cells by Western blotting; format: cell-based
# Procedure: (§5) We investigated the mechanism of ethidium bromide-induced apoptosis in tumor cells. First, tumor tissues treated with ethidium bromide (mice shown in FIGS. 7 and 8, treated for 4 weeks at 20 mg/Kg per day) were subjected to SDS-Loading buffer boiling lysis and tested for associated signaling pathways by Western blotting.
# In order to further determine how ethidium bromide activates phosphorylation of Erk and Caspase3 cleavage and induces apoptosis, we also tested with different cell lines treated with ethidium bromide for 10 min, 30 min, 1, 2, and 6 h.
# normal cells [6] = experiment: Median lethal dosage, summary over normal cells; format: cell-based; details: mostly, normal cells of Table 1; read-out: median lethal dosages against normal cells
# mouse melanoma cells B16 = experiment: Subcutaneous B16 melanoma in C57 mice, intraperitoneal administration; format: in vivo; details: intraperitoneal 10 mg/Kg
# Procedure: In order to further test whether ethidium bromide still has strong anti-tumor activity against solid tumors in vivo, C57 mice were first injected subcutaneously with 2×10^6 mouse melanoma cells B16, and the administration was initiated after about 10 days when the subcutaneous tumor volume of the mice reached about 30 mm^3. We first treated the mice by traditional intraperitoneal administration (10 mg/Kg). […] So after 3 days, we switched to injecting every other day. […] Although the tumors of the mice in the dosing group were slightly smaller than those in the control group, the tumor suppression effect was not obvious (FIG. 18C).
# C2C12 = experiment: Median lethal dosage (IC50) against normal cell lines; format: cell-based; details: Mus musculus; C2C12 normal cells
# 3T3-L1 = experiment: as above; format: cell-based; details: Mus musculus; 3T3-L1 normal cells
# normal cell line GES1 = experiment: Mitochondrial function by Seahorse; format: cell-based; details: Seahorse after 6 hours
# Procedure: as §1
# tumor cells = experiment: Median lethal dosage, summary over tumor cells; format: cell-based; details: vast majority of the tumor cells of Table 1; read-out: median lethal dosages against tumor cells
# [7] = tested on: tumor tissue blocks (PDX) from patients with colorectal cancer; experiment: Subcutaneous patient colorectal cancer graft (PDX) in nude mice; format: in vivo
# LO2 = experiment: Median lethal dosage (IC50) against normal cell lines; format: cell-based; details: Homo sapiens, L02; LO2 normal cells
# AGS Gastric cancer = experiment: Median lethal dosage (IC50) against tumor cell lines; format: cell-based; details: AGS gastric cancer tumor cells
# PANC1 Pancreatic cancer = experiment: as above; format: cell-based; details: Homo sapiens, PANC-1; PANC1 pancreatic cancer tumor cells
# [8] = Tolerability of gavage oral administration in mice; format: in vivo; details: gavage oral 20 mg/Kg per day
# [9] = tested on: AOM+DSS-induced colorectal tumor; experiment: AOM+DSS-induced spontaneous colorectal cancer mouse model; format: in vivo, mice
# Procedure: The classical intraperitoneal injection of AOM and the spontaneous colorectal cancer formation by three rounds of DSS were utilized to construct a tumor mouse model. Mice were treated with ethidium bromide (500 mg/L dissolved in drinking water) one week after completion of the construction. […] Mice were sacrificed and their colorectum was taken for photographic observation and fixed staining.
# To further verify the above results, we then expanded the sample size to about 10-16 mice per group and still used the above AOM+DSS protocol to induce spontaneous colorectal cancer formation in mice. […] Meanwhile, since it has been reported that zalcitabine (ddC) can effectively impair the function of mitochondria (mainly the replication of mtDNA, similar to ethidium bromide), we added the experimental group of zalcitabine (33 mg/Kg) as a control.
# In addition, in order to investigate in what way ethidium bromide clears tumors in mice, we also tested cell proliferation (FIGS. 8A and B) and apoptosis (FIG. 8C-F) in tumor tissues and normal tissues surrounding the tumors in different treatment groups. Among them, cell proliferation was detected by immunohistochemistry of Ki67-positive cells, and apoptosis was detected by immunofluorescence staining of cleaved Caspase3.
# To further verify whether ethidium bromide is still effective against already existing larger tumors (advanced colorectal cancer), we set aside a group of control mice (started administration 5 weeks after the end of induction, equivalent to the control group of mice described above) to administer them by gavage (20 mg/Kg per day).
# as §5
# [10] = cell lines treated 10 min, 30 min, 1, 2, 6 h
# [11] = gavage 20 mg/Kg once daily, one month
compound,measurement,setting,value
"CC[n+]1c(-c2ccccc2)c2cc(N)ccc2c2ccc(N)cc21 [ethidium bromide, Ethidium bromide]",IC50,GES1,64.7 µM
same,"oxygen consumption, glycolysis level, glycolysis rate",[1],significantly reduced
same,migration of tumor cells,[2],significantly inhibit the migration
same,migration of tumor cells,[3],significantly inhibit the migration
same,induction of cell death,"cancer cells; 0.1, 0.4, 1 μg/ml, SK-Hep1, BEL-7404, B16",can selectively induce the death of a wide range of cancer cells
same,induction of cell death,"cancer cells; 1, 2, 5 μM, SK-Hep1, 7404, AGS, RKO",can selectively induce the death of cancer cells in many different tissues
same,growth inhibition / apoptosis,"normal cells [4]; 0.1, 0.4, 1 μg/ml, Chang, LO2, 3T3-L1",inhibited growth at most and cannot induce apoptosis
same,growth inhibition / apoptosis,"normal cells [4]; 1, 2, 5 μM, LO2, chang, GES1",only inhibited growth and cannot induce apoptosis
same,time at which mTOR was activated,[5]; [10],10 min
same,time at which p-Erk was activated,[5]; [10],1 h
same,time at which p-NFkB was activated,[5]; [10],30 min
same,cleaved Caspase3 and Erk phosphorylation in vitro,"[5]; in vitro cells (AGS, GES1, RKO), 3 days of treatment",significant increase in the phosphorylation levels of both cleaved Caspase3 and Erk
same,IC50,normal cells [6],> 50 µM
same,tumor suppression effect,mouse melanoma cells B16,not obvious
same,body weight,mouse melanoma cells B16; after 3 days of continuous injection,lose weight significantly
same,survival of mice by the end of the experiment,mouse melanoma cells B16; daily 3 days then every other day,only 1 of the 19 mice survived
same,IC50,C2C12,85.5 µM
same,IC50,3T3-L1,67.9 µM
same,"oxygen consumption, glycolysis level, glycolysis rate",normal cell line GES1,decreased only at higher concentrations such as 5 μM
same,IC50,tumor cells,< 10 µM
same,subcutaneous tumor mass,"[7]; 20 mg/Kg in PBS injected directly into the tumor, once a day, three injections",rapidly necrotic and eventually died and fell off
same,anti-tumor effect,[7]; intravenously administered,very limited
same,IC50,LO2,50.7 µM
same,IC50,AGS Gastric cancer,0.71 µM
same,IC50,PANC1 Pancreatic cancer,3.3 µM
same,tolerability,[8],well tolerated
same,colorectal tumor mass,"[9]; 500 mg/L in drinking water, start one week after model construction, 2 months",almost complete disappearance of the tumor mass
same,"cleaved Caspase3, phosphorylation of Erk, LC3 level in tumor tissues (Western blotting)",[9]; 4 weeks at 20 mg/Kg per day,significant increase in cleaved Caspase3
same,body weight,[9]; [11],little changed
same,mice with complete disappearance of spontaneous colorectal tumors,[9]; [11],more than 80%
same,mtDNA copy number of colorectal tumors,[9]; [11],did not alter the mitochondrial mtDNA copy number
same,"size of the spleen, length of colorectum, weight of tissue organs vs control",[9]; [11],healthier
same,mice achieving complete tumor clearance,"[9]; larger (advanced) tumors, start 5 weeks after end of induction, gavage 20 mg/Kg per day, 1 month",more than 40%
same,"Caspase3-positive tumor cells (apoptotic cells, immunofluorescence)",[9]; vs other groups and surrounding normal tissues,significantly higher
same,"proliferation of tumor cells (Ki67-positive, immunohistochemistry)",[9]; vs other treatment groups,significantly lower
